Laboratory results as given in ChEMBL document CHEMBL5215003, “Evaluating the in Vitro Efficacy of Quassinoids from Eurycoma longifolia and Eurycoma harmandiana against Common Cold Human Coronavirus OC43 and SARS-CoV-2 Using In-Cell Enzyme-Linked Immunosorbent Assay” (J Nat Prod, 2022).
Several values for one entry are separate records, joined by “and”; a condition that tells them apart may be missing. Equal entries are not always repeated.

Columns and labels:
[1] = Antiviral activity against HCoV-OC43 infected in human HCT-8 cells assessed as inhibition of viral growth at 10 uM incubated for 4 days by ELISA analysis relative to control; type: functional, Human coronavirus OC43; design: scale not given: the % may be the effect or the level left; conditions: time 4 day
[2] = test system: HCT-8; test: Cytotoxicity against human HCT-8 cells assessed as redcution in cell viability at 10 uM incubated for 96 hrs by PrestoBlue reagent based assay relative to control; type: toxicity; conditions: hct-8, 96 h
[3] = Cytotoxicity against human HCT-8 cells assessed as redcution in cell viability incubated for 96 hrs by PrestoBlue reagent based assay; type: toxicity
[4] = Cytotoxicity against African green monkey Vero cells assessed as reduction in cell viability incubated for 48 hrs by PrestoBlue reagent based assay; type: toxicity; conditions: chlorocebus sabaeus
[5] = Cytotoxicity against human Calu-3 cells assessed as reduction in cell viability incubated for 48 hrs by PrestoBlue reagent based assay; type: toxicity
[6] = Cytotoxicity against human MRC5 cells assessed as reduction in cell viability incubated for 48 hrs by PrestoBlue reagent based assay; type: toxicity
[7] = Cytotoxicity against human HepG2 cells assessed as reduction in cell viability incubated for 48 hrs by PrestoBlue reagent based assay; type: toxicity
[8] = Antiviral activity against HCoV-OC43 infected in human HCT-8 cells assessed as inhibition of viral growth incubated for 4 days by ELISA analysis; type: functional, cell-based, Human coronavirus OC43; conditions: Betacoronavirus 1, HCT-8, 96 h
[9] = Selectivity index, ratio of CC50 for cytotoxicity against human HCT-8 cells to IC50 for antiviral activity against HCoV-OC43 infected in human HCT-8 cells; type: toxicity, cell-based; conditions: read-out: Ratio CC50/IC50
[10] = test system: SARS-CoV-2; test: Antiviral activity against SARS-CoV-2 infected in African green monkey Vero cells assessed as inhibition of viral growth incubated for 2 days by ELISA analysis; type: functional, organism-based; conditions: Severe acute respiratory syndrome coronavirus 2, Vero, 48 h
[11] = Selectivity index, ratio of CC50 for cytotoxicity against African green monkey Vero cells to IC50 for antiviral activity against SARS-CoV-2 infected in African green monkey Vero cells; type: toxicity, cell-based; conditions: read-out: Ratio CC50/IC50
[12] = test system: SARS-CoV-2; test: microbe, parasite or virus in culture; type: functional, organism-based, Vero E6; conditions: Severe acute respiratory syndrome coronavirus 2, Vero C1008

## O=c1ccc2nccc3c4ccc(O[C@@H]5O[C@H](CO)[C@@H](O)[C@H](O)[C@H]5O)cc4n1c23
[1]
  Activity: <20%
[2]
  Activity: 53.28%
[3]
  CC50 at 96 h: 33.8 µM
[4]
  CC50 at 48 h: > 100 µM
[5]
  CC50 at 48 h: > 100 µM
[6]
  CC50 at 48 h: > 100 µM
[7]
  CC50 at 48 h: > 100 µM

## CC1=CC(=O)[C@@H](O)[C@]2(C)[C@H]3[C@]4(O)OC[C@@]35[C@@H](C[C@@H]12)OC(=O)[C@H](O)[C@@]5(O)[C@]1(CO1)[C@H]4O
[1]
  Activity: 61.73%
[2]
  Activity: 100.88%
[8]
  IC50: 5.88 µM
[3]
  CC50 at 96 h: > 100 µM
[9]
  selectivity ratio: > 17
[10]
  IC50: 9.39 µM and 3.98 µg/mL
[4]
  CC50 at 48 h: > 100 µM
[11]
  selectivity ratio: > 10.7
[5]
  CC50 at 48 h: > 100 µM
[6]
  CC50 at 48 h: > 100 µM
[7]
  CC50 at 48 h: > 100 µM

## O=c1ccc2nccc3c4ccc(O)cc4n1c23
[1]
  Activity: <20%
[2]
  Activity: 49.3%
[3]
  CC50 at 96 h: 60.9 µM
[4]
  CC50 at 48 h: > 100 µM
[5]
  CC50 at 48 h: > 100 µM
[6]
  CC50 at 48 h: > 100 µM
[7]
  CC50 at 48 h: > 100 µM

## COC(=O)[C@@]12OC[C@]34[C@H]([C@@H](O)[C@@H]1O)[C@@]1(C)CC(=O)C(O)=C(C)[C@@H]1C[C@H]3OC(=O)[C@H](OC(=O)C=C(C)C)[C@@H]24
[12]
  IC50: 0.049 µM

## COc1ccc2c3ccnc4ccc(=O)n(c2c1)c43
[1]
  Activity: <20%
[2]
  Activity: 33.49%
[3]
  CC50 at 96 h: 21.1 µM
[4]
  CC50 at 48 h: > 100 µM
[5]
  CC50 at 48 h: > 100 µM
[6]
  CC50 at 48 h: > 100 µM
[7]
  CC50 at 48 h: > 100 µM

## COc1ccc2c(c1)[nH]c1c(CCC(=O)O)nccc12
[1]
  Activity: <20%
[2]
  Activity: 108.23%
[3]
  CC50 at 96 h: 79 µM
[4]
  CC50 at 48 h: > 100 µM
[5]
  CC50 at 48 h: > 100 µM
[6]
  CC50 at 48 h: > 100 µM
[7]
  CC50 at 48 h: > 100 µM

## O=C(O)CCc1nccc2c1[nH]c1ccccc12
[1]
  Activity: <20%
[2]
  Activity: 108.05%
[3]
  CC50 at 96 h: > 100 µM
[4]
  CC50 at 48 h: > 100 µM
[5]
  CC50 at 48 h: > 100 µM
[6]
  CC50 at 48 h: > 100 µM
[7]
  CC50 at 48 h: > 100 µM

## O=C(O)CCc1nccc2c1[nH]c1cc(O)ccc12
[1]
  Activity: <20%
[2]
  Activity: 108.23%
[3]
  CC50 at 96 h: 50.1 µM
[4]
  CC50 at 48 h: > 100 µM
[5]
  CC50 at 48 h: > 100 µM
[6]
  CC50 at 48 h: > 100 µM
[7]
  CC50 at 48 h: > 100 µM

## CC1=CC(=O)[C@@H](O)[C@]2(C)[C@H]3[C@]4(O)OC[C@@]35[C@@H](C[C@@H]12)OC(=O)C[C@H]5[C@](C)(O)[C@H]4O
[1]
  Activity: 84.54%
[2]
  Activity: 56.66%
[8]
  IC50: 0.32 µM
[3]
  CC50 at 96 h: 6.65 µM
[9]
  selectivity ratio: 20.8
[10]
  IC50: 430 nM and 0.16 µg/mL
[4]
  CC50 at 48 h: 26.2 µM
[11]
  selectivity ratio: 61
[5]
  CC50 at 48 h: 98.7 µM
[6]
  CC50 at 48 h: 9.99 µM
[7]
  CC50 at 48 h: 86.7 µM

## CC1=CC(=O)[C@@H](O)[C@]2(C)[C@H]3[C@]4(O)OC[C@@]35[C@@H](C[C@@H]12)OC(=O)[C@H](O)[C@@]5(O)[C@](C)(O)[C@H]4O
[1]
  Activity: 93.71%
[2]
  Activity: 70.13%
[8]
  IC50: 0.25 µM
[3]
  CC50 at 96 h: 48.7 µM
[9]
  selectivity ratio: 195
[10]
  IC50: 4.84 µM and 1.69 µg/mL
[4]
  CC50 at 48 h: > 100 µM
[11]
  selectivity ratio: > 20.7
[5]
  CC50 at 48 h: > 100 µM
[6]
  CC50 at 48 h: 54.3 µM
[7]
  CC50 at 48 h: > 100 µM

## CC1=CC(=O)[C@@H](O)[C@]2(C)C3[C@@H](O)[C@@H]4OC(=O)[C@@H]([C@H]4C)[C@]3(C)C(=O)C[C@@H]12 (some centres undefined)
[1]
  Activity: 90.27%
[2]
  Activity: 71.14%
[8]
  IC50: 0.37 µM
[3]
  CC50 at 96 h: 58.9 µM
[9]
  selectivity ratio: 159
[10]
  IC50: 510 nM and 0.18 µg/mL
[4]
  CC50 at 48 h: 57.1 µM
[11]
  selectivity ratio: 112
[5]
  CC50 at 48 h: 41.9 µM
[6]
  CC50 at 48 h: 31.2 µM
[7]
  CC50 at 48 h: > 100 µM

## C=C1CC[C@@H]2[C@](C)(CO)[C@H](O)CC[C@@]2(C)[C@@H]1C/C=C1/C(=O)OC[C@H]1O [ANDROGRAPHOLIDE]
[1]
  Activity: 60.4%
[2]
  Activity: 93.47%

## COC(=O)[C@@]12OC[C@]34[C@H]([C@@H](O)[C@@H]1O)[C@@]1(C)CC(=O)C(O)=C(C)[C@@H]1C[C@H]3OC(=O)[C@H](OC(=O)CC(C)C)[C@@H]24 [BRUCEINE A]
[12]
  IC50: 0.011 µM

## O=c1ccc2nccc3c4ccccc4n1c23 [CANTHIN-6-ONE]
[1]
  Activity: <20%
[2]
  Activity: 55.55%
[3]
  CC50 at 96 h: 42.4 µM
[4]
  CC50 at 48 h: > 100 µM
[5]
  CC50 at 48 h: > 100 µM
[6]
  CC50 at 48 h: 91.2 µM
[7]
  CC50 at 48 h: 85.7 µM

## C=C1[C@@H](O)[C@@]2(O)OC[C@]34[C@H]2[C@@]2(C)[C@H](O)C(=O)C=C(C)[C@@H]2C[C@H]3OC(=O)[C@H](O)[C@@]14O [EURYCOMANONE]
[1]
  Activity: 57.93%
[2]
  Activity: 72.16%
[8]
  IC50: 4.47 µM
[3]
  CC50 at 96 h: 59.2 µM
[9]
  selectivity ratio: 13.2
[10]
  IC50: 15 µM and 6.11 µg/mL
[4]
  CC50 at 48 h: > 100 µM
[11]
  selectivity ratio: > 6.68
[5]
  CC50 at 48 h: 88.1 µM
[6]
  CC50 at 48 h: > 100 µM
[7]
  CC50 at 48 h: > 100 µM

## CCC(CC)COC(=O)[C@H](C)N[P@](=O)(OC[C@H]1O[C@@](C#N)(c2ccc3c(N)ncnn23)[C@H](O)[C@@H]1O)Oc1ccccc1 [REMDESIVIR]
[1]
  Activity: 92.45%
[2]
  Activity: 96.21%
[8]
  IC50: 0.32 µM
[3]
  CC50 at 96 h: 53.2 µM
[9]
  selectivity ratio: 166
[10]
  IC50: 22.5 µM
[4]
  CC50 at 48 h: > 100 µM
[11]
  selectivity ratio: > 4.44
[5]
  CC50 at 48 h: > 100 µM
[6]
  CC50 at 48 h: > 100 µM
[7]
  CC50 at 48 h: 52.6 µM
